According to patent publication US20070259907A1, “ARYL AND ARYLALKYLENYL SUBSTITUTED THIAZOLOQUINOLINES AND THIAZOLONAPHTHYRIDINES” (priority 2004, published 2007):

Row | Compound | melting point
1 | CCCc1nc2c(N)nc3cc(-c4cccc(S(C)(=O)=O)c4)ccc3c2s1 [Example 48, 7-[3-(Methylsulfonyl)phenyl]-2-propylthiazolo[4,5-c]quinolin-4-amine] | 242 to 245 °C
2 | CCCc1nc2c(N)nc3cc(-c4ccccc4NC(C)=O)ccc3c2s1 [Example 46, N-[2-(4-Amino-2-propylthiazolo[4,5-c]quinolin-7-yl)phenyl]acetamide] | 206 to 209 °C
3 | CCCc1nc2c(N)nc3cc(-c4cccc(CO)c4)ccc3c2s1 [Example 1, [3-(4-Amino-2-propylthiazolo[4,5-c]quinolin-7-yl)phenyl]methanol] | 186 to 188 °C
4 | CCCc1nc2c(N)nc3cc(-c4cccc(NS(C)(=O)=O)c4)ccc3c2s1 [Example 2, N-[3-(4-Amino-2-propylthiazolo[4,5-c]quinolin-7-yl)phenyl]methanesulfonamide] | 228 to 231 °C
5 | CCCc1nc2c(N)nc3cc(-c4cccc(C(=O)N5CCCC5)c4)ccc3c2s1 [Example 43, 2-Propyl-7-[3-(pyrrolidin-1-ylcarbonyl)phenyl]thiazolo[4,5-c]quinolin-4-amine] | 177 to 180 °C
6 | CCCc1nc2c(N)nc3cc(-c4cccc(NC(C)=O)c4)ccc3c2s1 [Example 49, N-[3-(4-Amino-2-propylthiazolo[4,5-c]quinolin-7-yl)phenyl]acetamide] | 173 to 176 °C
7 | CCCc1nc2c(N)nc3cc(-c4cccc(C(=O)N5CCOCC5)c4)ccc3c2s1 [Example 4, 7-[3-(Morpholin-4-ylcarbonyl)phenyl]-2-propylthiazolo[4,5-c]quinolin-4-amine] | 190 to 193 °C
8 | CCCc1nc2c(N)nc3cc(-c4cccc(C(=O)NC5CC5)c4)ccc3c2s1 [Example 45, 3-(4-Amino-2-propylthiazolo[4,5-c]quinolin-7-yl)-N-cyclopropylbenzamide] | 251 to 254 °C
9 | CCCc1nc2c(N)nc3cc(-c4cccc(CN)c4)ccc3c2s1 [Example 50, 7-(3-Aminomethylphenyl)-2-propylthiazolo[4,5-c]quinolin-4-amine] | 168 to 171 °C
10 | CCCc1nc2c(N)nc3cc(-c4ccccc4C(N)=O)ccc3c2s1 [Example 47, 2-(4-Amino-2-propylthiazolo[4,5-c]quinolin-7-yl)benzamide] | 274 to 276 °C
11 | CCCc1nc2c(N)nc3cc(-c4cccc(C(=O)N(CC)CC)c4)ccc3c2s1 [Example 42, 3-(4-Amino-2-propylthiazolo[4,5-c]quinolin-7-yl)-N,N-diethylbenzamide] | 169 to 172 °C
12 | CCCc1nc2c(N)nc3cc(-c4ccccc4CO)ccc3c2s1 [Example 3, [2-(4-Amino-2-propylthiazolo[4,5-c]quinolin-7-yl)phenyl]methanol] | 216 to 219 °C
13 | CCCc1nc2c(N)nc3cc(-c4ccc(NC(C)=O)cc4)ccc3c2s1 [Example 44, N-[4-(4-Amino-2-propylthiazolo[4,5-c]quinolin-7-yl)phenyl]acetamide] | 252 to 255 °C

Other lines, results leading:

Row | melting point | Compound
14 | 176 to 177 °C | CCCc1nc2c(N)nc3ccc(-c4cccc(CO)c4)cc3c2s1 [Example 140, [3-(4-Amino-2-propylthiazolo[4,5-c]quinolin-8-yl)phenyl]methanol]
15 | 198 to 201 °C | CCCc1nc2c(N)nc3ccc(-c4ccc(F)cc4CN)cc3c2s1 [Example 136, 8-[2-(Aminomethyl)-4-fluorophenyl]-2-propylthiazolo[4,5-c]quinolin-4-amine]
16 | 194 to 196 °C | CCCc1nc2c(N)nc3ccc(-c4ccccc4CO)cc3c2s1 [Example 139, [2-(4-Amino-2-propylthiazolo[4,5-c]quinolin-8-yl)phenyl]methanol]
17 | 181 to 184 °C | CCCc1nc2c(N)nc3cc(-c4ccc(F)cc4CN)ccc3c2s1 [Example 51, 7-[2-(Aminomethyl)-4-fluorophenyl)-2-propylthiazolo[4,5-c]quinolin-4-amine]
18 | 252 to 255 °C | CCCc1nc2c(N)nc3ccc(-c4cccc(S(C)(=O)=O)c4)cc3c2s1 [Example 134, 8-[3-(Methylsulfonyl)phenyl]-2-propylthiazolo[4,5-c]quinolin-4-amine]
19 | 251 to 254 °C | CCCc1nc2c(N)nc3ccc(-c4ccc(NC(C)=O)cc4)cc3c2s1 [Example 137, N-[4-(4-Amino-2-propylthiazolo[4,5-c]quinolin-8-yl)phenyl]acetamide]
20 | 225 to 226 °C | CCCc1nc2c(N)nc3ccc(-c4ccc(CN)cc4)cc3c2s1 [Example 143, 8-[4-(Aminomethyl)phenyl]-2-propylthiazolo[4,5-c]quinolin-4-amine]
21 | 242 to 245 °C | CCCc1nc2c(N)nc3ccc(-c4cccc(NC(C)=O)c4)cc3c2s1 [Example 135, N-[3-(4-Amino-2-propylthiazolo[4,5-c]quinolin-8-yl)phenyl]acetamide]
22 | 212 to 214 °C | CCCc1nc2c(N)nc3ccc(-c4ccc(CO)cc4)cc3c2s1 [Example 141, [4-(4-Amino-2-propylthiazolo[4,5-c]quinolin-8-yl)phenyl]methanol]
23 | 189 to 191 °C | CCCc1nc2c(N)nc3ccc(-c4cccc(CN)c4)cc3c2s1 [Example 142, 8-[3-(Aminomethyl)phenyl]-2-propylthiazolo[4,5-c]quinolin-4-amine]
24 | 244 to 246 °C | CCCc1nc2c(N)nc3ccc(-c4cccc(NS(C)(=O)=O)c4)cc3c2s1 [Example 138, N-[3-(4-Amino-2-propylthiazolo[4,5-c]quinolin-8-yl)phenyl]methanesulfonamide]
